Tests used:
[1] = tested on: spontaneously hypertensive rats; assay: Antihypertensive efficacy test of pharmaceutical compositions in spontaneously hypertensive rats; assay type: in vivo, rat; conditions: SHR, intragastric once a day, 28 days after administration
Method: After that, the blood pressure sensing catheter of hypertension implant was inserted into their abdominal aorta, while the implant was fixed to the abdominal wall, and then postoperative daily care was performed after suturing. […] A group of WKY rats (provided by Beijing Weitong Lihua Co., Ltd.) was set as a normal control group, which were administered intragastrically once a day at a volume calculated by 4 mL/kg for a total of 4 weeks. Each group were administered as follows: The normal control group were not administered; The blank control group were administered 0.5% CMC-Na; […] The valsartan group were administered valsartan dissolved in 0.5% CMC-Na, at a dose of 30 mg/kg; The Azilsartan kaMedoxoMil were administered Azilsartan kaMedoxoMil dissolved in 0.5% CMC-Na, at a dose of 1 mg (azilsartan effective dose)/kg; The AHU […] group were administered AHU 377 K, dissolved in 0.5% CMC-Na, at a dose of 30 mg/kg; The AHU377 ammonium salt group were administered AHU377 ammonium salt, dissolved in 0.5% CMC-Na, at a dose of 30 mg/kg; The LCZ696 group were administered LCZ696, dissolved in 0.5% CMC-Na, at a dose of 60 mg/kg; […]

[2] = tested on: chronic heart failure rats; assay: Therapeutic effect of pharmaceutical composition on chronic heart failure rats (high-salt fed DSS rats); assay type: in vivo, rat; conditions: high-salt (8% sodium chloride) fed DSS rats, administration for 7 weeks, analysis at 18-weeks-age
Method: Five-week-old male DSS rats (purchased from Beijing Weitong Lihua Experimental Animal Technology Co., Ltd.) were randomly divided into 10 groups, among which, one group were fed with low salt as normal control group and the other 9 groups were fed with high salt. The low-salt feeding group were administered 0.3% sodium chloride, and high-salt feeding group were administered 8% sodium chloride to induce hypertension-cardiac hypertrophy-heart failure to form pathological model. […] The rats were killed at 18-weeks-age for analysis of blood pressure and atrial natriuretic peptide (ANP).

[3] = tested on: rats with heart failure by coronary artery ligation (CAL); assay: Therapeutic effect of pharmaceutical compositions on acute heart failure caused by coronary artery ligation; assay type: in vivo, rat; conditions: Sprague-Dawley rats, after 4 weeks of continuous administration; for EF (left ventricular ejection fraction): cardiac ultrasound
Source text: Male Sprague-Dawley rats (purchased from Beijing Weitong Lihua Experimental Animal Technology Co., Ltd.) were used to perform heart failure model by coronary artery ligation (CAL). One week after surgery, the myocardial infarct size of the rats was examined by echocardiography. […] Operations on the normal control group were the same as above, except for the absence of arterial ligation. Rats with successful modeling were randomly divided into 9 groups, wherein each group has 10 rats. […] Cardiac function was detected by cardiac ultrasound after 4 weeks of continuous administration, and changes of mean arterial pressure (MAP) and left ventricular ejection fraction (EF) were analyzed.

[4] = tested on: spontaneously hypertensive rats; assay: Antihypertensive efficacy test of the compound 1K in spontaneously hypertensive rats; assay type: in vivo, rat; conditions: SHR, intragastric, 1 mg/kg; for Heart rates change, 1 hour after administration / Systolic blood pressure change, 1 hour after administration / Heart rates change, 3 hours after administration / Systolic blood pressure change, 3 hours after administration / Heart rates change, 5 hours after administration / Systolic blood pressure change, 5 hours after administration / Heart rates change, 7 hours after administration / Systolic blood pressure change, 7 hours after administration / Heart rates change, 10 hours after administration / Systolic blood pressure change, 10 hours after administration / Heart rates change, 24 hours after administration / Systolic blood pressure change, 24 hours after administration / Heart rates change, before administration / Systolic blood pressure change, before administration: average ± standard error; for Heart rates change, before administration / Systolic blood pressure change, before administration: before administration (reference value)
Method: 12-week-old spontaneously hypertensive rats (hereinafter referred to as SHR, purchased from Beijing Weitong Lihua Experimental Animal Technology Co., Ltd.) were anesthetized with 2.5% sodium pentobarbital for intraperitoneal injection. After that, the blood pressure sensing catheter of hypertension implant was inserted into their abdominal aorta, while the implant was fixed to the abdominal wall, and then postoperative daily care was performed after suturing. Rats with systolic blood pressure exceeding 160 mm Hg were divided into 3 groups (control group, compound 1 group and compound 1K group), wherein each group has 8 rats. The control group was administrated 0.5% sodium carboxymethyl cellulose (hereinafter referred to as CMC-Na); the compound 1 group and the compound 1K group were respectively administered the compound 1 and the compound 1K, both of which were dissolved by 0.5% CMC-Na, by intragastric administration, at a dose of 1 mg/kg (calculated by the effective dose of valsartan) and a volume calculated by 4 mL/kg. The systolic blood pressure and heart rate of SHR were compared before and after administration (the systolic blood pressure and heart rate of SHR before administration as reference value), which were detected three times at each time point with the average value recorded.

## CCOC(=O)[C@H](C)C[C@@H](Cc1ccc(-c2ccccc2)cc1)NC(=O)CCC(=O)O.N [AHU377 ammonium salt, Ammonium 4-(((2S,4R)-1-([1,1′-biphenyl]-4-yl)-5-ethoxy-4-methyl-5-oxopentane-2-yl)amino)-4-oxobutanoate]
[1]
  heart rate change: 3 ± 2.1 times/minute
  systolic pressure change: −18.5 ± 2.5 mmHg
[2]
  ANP rate of change: 135.3p %
  systolic pressure change: −18.3p am mmHg
[3]
  MAP (mean arterial pressure): 172oup mmHg

## CCOC(=O)[C@H](C)C[C@@H](Cc1ccc(-c2ccccc2)cc1)NC(=O)CCC(=O)[O-].[K+] [AHU 377K, potassium 4-(((2S,4R)-1-([1,1′-biphenyl]-4-yl)-5-ethoxy-4-methyl-5-oxopentan-2-yl)amino)-4-oxobutanoate]
[1]
  heart rate change: −8.1 ± 2.8 times/minute
  systolic pressure change: −15.6 ± 2.5 mmHg
[2]
  ANP rate of change: 143.6p %
  systolic pressure change: −20.6p7Km mmHg
[3]
  MAP (mean arterial pressure): 170.6p7K mmHg
  EF (left ventricular ejection fraction): 37.46p7K %

## CCOc1nc2cccc(C(=O)OCc3oc(=O)oc3C)c2n1Cc1ccc(-c2ccccc2-c2noc(=O)[n-]2)cc1.[K+] [Azilsartan kaMedoxoMil]
[1]
  heart rate change: −11.1 ± 3.7 times/minute
  systolic pressure change: −33.5 ± 3.2 mmHg
[2]
  ANP rate of change: 132.3s^ %
  systolic pressure change: −36.3sium mmHg
[3]
  MAP (mean arterial pressure): 150.4sium^ mmHg
  EF (left ventricular ejection fraction): 45.14siu %

## CCOc1nc2cccc(C(=O)OC(C)OC(=O)OCc3nc(C)c(C)nc3C)c2n1Cc1ccc(-c2ccccc2-c2noc(=O)[n-]2)cc1.[K+] (centres unmarked) [Compound 1K]
[4]
  Heart rates change, 1 hour after administration: −3.6 ± 2.4 times/minute
  Systolic blood pressure change, 1 hour after administration: −7.0 ± 3.4 mmHg
  Heart rates change, 3 hours after administration: −5.0 ± 2.5 times/minute
  Systolic blood pressure change, 3 hours after administration: −34.3 ± 1.9 mmHg
  Heart rates change, 5 hours after administration: −10.1 ± 3.0 times/minute
  Systolic blood pressure change, 5 hours after administration: −46.5 ± 2.5 mmHg
  Heart rates change, 7 hours after administration: −17.5 ± 3.0 times/minute
  Systolic blood pressure change, 7 hours after administration: −49.4 ± 4.1 mmHg
  Heart rates change, 10 hours after administration: −25.4 ± 2.4 times/minute
  Systolic blood pressure change, 10 hours after administration: −45.3 ± 3.3 mmHg
  Heart rates change, 24 hours after administration: −28.6 ± 8 times/minute
  Systolic blood pressure change, 24 hours after administration: −25.9 ± 3.4 mmHg
  Heart rates change, before administration: 0.0 ± 0.0 times/minute
  Systolic blood pressure change, before administration: 0.0 ± 0.0 mmHg
[4]; result in words
  antihypertensive effect compared with the compound 1 group: more potent with longer-lasting antihypertensive effect
  effect of lowering heart rate compared with the compound 1 group: more potent with longer-lasting effect of lowering heart rate
[1]
  heart rate change: −29.3 ± 4.1 times/minute
  systolic pressure change: −50.4 ± 4.7 mmHg
[2]
  ANP rate of change: 158 ± 7%
  systolic pressure change: −48.5 ± 7.5 mmHg
[3]
  MAP (mean arterial pressure): 145.5 ± 8.9 mmHg
  EF (left ventricular ejection fraction): 48.6 ± 5.3%

## CCOc1nc2cccc(C(=O)OC(C)OC(=O)OCc3nc(C)c(C)nc3C)c2n1Cc1ccc(-c2ccccc2-c2noc(=O)[nH]2)cc1 (centres unmarked) [Compound 1]
[4]
  Heart rates change, 1 hour after administration: −3.4 ± 2.6 times/minute
  Systolic blood pressure change, 1 hour after administration: −4.9 ± 4.8 mmHg
  Heart rates change, 3 hours after administration: −2.33 ± 2.6 times/minute
  Systolic blood pressure change, 3 hours after administration: −22.0 ± 3.6 mmHg
  Heart rates change, 5 hours after administration: −6.5 ± 2.8 times/minute
  Systolic blood pressure change, 5 hours after administration: −30.5 ± 3.5 mmHg
  Heart rates change, 7 hours after administration: −6.2 ± 3.0 times/minute
  Systolic blood pressure change, 7 hours after administration: −38.8 ± 2.3 mmHg
  Heart rates change, 10 hours after administration: −12.3 ± 2.8 times/minute
  Systolic blood pressure change, 10 hours after administration: −33.0 ± 1.7 mmHg
  Heart rates change, 24 hours after administration: −6.7 ± 2.6 times/minute
  Systolic blood pressure change, 24 hours after administration: −10.2 ± 2.1 mmHg
  Heart rates change, before administration: 0.0 ± 0.0 times/minute
  Systolic blood pressure change, before administration: 0.0 ± 0.0 mmHg
other
  melting point: 135 to 145 °C

## CCCCC(=O)N(Cc1ccc(-c2ccccc2-c2nnn[nH]2)cc1)[C@H](C(=O)O)C(C)C [valsartan]
[1]
  heart rate change: −10.6 ± 3.2 times/minute
  systolic pressure change: −30.6 ± 3.5 mmHg
[2]
  ANP rate of change: 125 ± 52%
  systolic pressure change: −32.4 ± 4.6 mmHg
[3]
  EF (left ventricular ejection fraction): 35.3arta^ %
